Results reported in patent US20220185811A1, “FGFR4 KINASE INHIBITOR AND PREPARATION METHOD THEREFOR AND USE THEREOF” (SHOUYAO HOLDINGS (BEIJING) CO., LTD., priority 2019, published 2022).
Like-named read-outs stand apart in the source and are kept apart here.

Experiments:
[1] = system: Human hepatoma cells Hep3b; experiment: Cell proliferation inhibition, Cell Titer-Glo; format: cell-based; settings: 72 h
Method: 2. Determination of cell proliferation activity of compounds:
Cell Titer-Glo ® detection reagent from Promega was used to establish the suspension cell proliferation inhibition screening method. Human hepatoma cells Hep3b (Xiehe Cell Research Center) were cultured in 25 cm^2 or 75 cm^2 plastic tissue culture flasks (Corning®) filled with MEM (Gibco®) medium supplemented with 10% fetal bovine serum (Hyclone®) under 37° C., 95% air and 5% CO2, and subcultured 2-3 times a week.
(§1) Hep3b cells were seeded in a 96-well cell culture plate (Corning®) at a density of 3×10^3 cells/well, […], and cultured under 37° C., 95% air, and 5% CO2. After 24 h the test compound was added: 10 mM compounds (dissolved in DMSO) were subjected to 3-fold gradient dilution in DMSO , […] of diluent from each concentration was added to […] of serum-free medium, and finally […] of compound diluted in the medium was added to the plate seeded with cells. The final concentration of DMSO in the cell culture medium was 0.1% and the final concentration of the test compound was 0.3 nM-[…]. The above cells were incubated for 3 days under 37° C.
After 3 days, the cell viability assay was performed by the Cell Titer-Glo (Promega) kit, and finally, the inhibitory concentration 50% of the compound on cell proliferation, i.e. the IC 50 value, was calculated by the GraphPad Prism 5.0 program.
as §1, with “DMSO,” for “DMSO ,”, “finally,” for “finally”, “of” for “of the”
After 3 days, the cell viability assay was performed by the Cell Titer-Glo (Promega) kit, and finally the inhibitory concentration 50% of the compound on cell proliferation, i.e. the IC 50 value, was calculated by the GraphPad Prism 5.0 program.

FGFR-4 kinase = FGFR-4 kinase (Homo sapiens, UniProt P22455); experiment: FGFR-4 kinase activity, homogeneous time-resolved fluorescence (HTRF) method; format: biochemical; settings: ATP 25 μM, FGFR-4 kinase 1 nM, read-out: FGFR4 IC50
Method: 1. In vitro determination of the protein activity of compounds: The FGFR-4 kinase activity detection platform was established by the homogeneous time-resolved fluorescence (HTRF) method, and the activity of the compound was determined. 1000 μM compounds were subjected to 3-fold gradient dilution in 100% DMSO 11 times (12 concentrations in total), 4 μL diluent from each concentration was added to 96 μL of reaction buffer (50 mM HEPES, pH 7.4, 5 mM MnCl2, 0.1 mM NaVO3, 0.001% Tween-20, 0.01% BAS, 1 mM DTT) and mixed well, as a 4* compound (final concentration of 0.017 nM-1000 nM) for later use. 2 * FGFR-4 kinase (final concentration of 1 nM) was formulated using reaction buffer and 4*substrate (ATP+TK peptide) (TK peptide, HTRF® KinEASETM-TK, purchased from Cisbio, TK peptide, final concentration of 1 μM, ATP final concentration of 25 μ M) was formulated using reaction buffer. 2.5 μL of 4*compound and then 5 μL of 2 * FGFR-4 kinase were added to a 384-well plate (OptiPlate-384, purchased from PerkinElmer), the mixture was mixed by centrifugation, and 2.5 μL of 4 * substrate mixture was added to start the reaction (total reaction volume of 10 µL). The 384-well plate was placed in an incubator 23° C. and stirred for 60 min before the reaction was stopped by the addition of 5 μL of Eu^3+cryptate-labeled anti-phosphotyrosine antibody (TRF® KinEASE™-TK, purchased from Cisbio) and 5 μL of Streptavidin-XL-665 (HTRF® KinEASE™-TK, purchased from Cisbio). After incubation in the incubator for 1 h, fluorescence values (excitation at 320 nm, detecting emitted light at 665 nm and 620 nm, and a ratio of the two as enzyme activity) were read on Envision (purchased from PerkinElmer). The enzyme activity of each compound was measured at 12 concentrations, and the ICso value of the compound was calculated using GraphPad Prism 5.0 software.
The FGFR-4 kinase activity detection platform was established by homogeneous time-resolved fluorescence (HTRF) method, and the activity of compound was determined. 1000 μM compounds were subjected to 3-fold gradient dilution in 100% DMSO 11 times (12 concentrations in total), 4 μL of diluent from each concentration was added to 96 μL of reaction buffer (50 mM HEPES, pH 7.4, 5 mM MnCl2, 0.1 mM NaVO3, 0.001% Tween-20, 0.01% BAS, 1 mM DTT) and mixed well, as a 4* compound (final concentration of 0.017 nM-1000 nM) for later use. 2 * FGFR-4 kinase (final concentration of 1 nM) was formulated using reaction buffer and 4*substrate (ATP+TK peptide)(TK peptide, HTRF® KinEASE™-TK, purchased from Cisbio, TK peptide, final concentration of 1 μM, ATP final concentration of 25 μM) was formulated using reaction buffer. 2.5 μL of 4 * compound and then 5 μL of 2 * FGFR-4 kinase were added to a 384-well plate (OptiPlate-384, purchased from PerkinElmer), the mixture was mixed by centrifugation, and 2.5 μL of 4 * substrate mixture was added to start the reaction (total reaction volume of 10 μL). The 384-well plate was placed in an incubator 23° C. and stirred for 60 min before the reaction was stopped by the addition of 5 μL of Eu^3+cryptate-labled anti-phosphotyrosine antibody (TRF® KinEASE™-TK, purchased from Cisbio) and 5 μL of Streptavidin-XL-665 (HTRF® KinEASE™-TK, purchased from Cisbio). After incubation in the incubator for 1 h, fluorescence values (excitation at 320 nm, detecting emitted light at 665 nm and 620 nm, and a ratio of the two as enzyme activity) were read on Envision (purchased from PerkinElmer). The enzyme activity of each compopund was measured at 12 concentrations, and the ICso value of the compound was calculated using GraphPad prism 5.0 software.

[2] = Pharmacokinetics in male SD rats, single intragastric administration; format: in vivo; settings: rat, po, 5 mg/kg suspension, plasma, first PK table
Method: (§2) Male SD rats (Beijing Vital River Laboratory Animal Technology Co., Ltd.) were divided into groups of 3 rats each. The rats were subjected to 5 mg/kg suspension of the test sample by single intragastric administration, respectively. Animals were fasted overnight prior to the experiment from 10 h before dosing to 4 h after dosing. Blood was collected 0.25, 0.5, 1, 2, 4, 6, 8, and 24 h after administration. After isoflurane anesthesia using a small animal anesthesia machine, 0.3 mL of whole blood samples was collected from the fundus venous plexus, placed in a heparin anticoagulant tube, and were centrifuged at 4° C., 4000 rpm for 5 min, plasma was transferred to the centrifuge tube, and stored at −80° C. until analysis. Samples in the plasma were extracted using protein precipitation and the extracts were analyzed by LC/MS/MS.
as §2, with “taken through” for “collected from”, “-80°” for “−80°”

[3] = Hep3B, Table 1, 3 days incubation

FGFR-4 kinase, sequence (P22455 22-802): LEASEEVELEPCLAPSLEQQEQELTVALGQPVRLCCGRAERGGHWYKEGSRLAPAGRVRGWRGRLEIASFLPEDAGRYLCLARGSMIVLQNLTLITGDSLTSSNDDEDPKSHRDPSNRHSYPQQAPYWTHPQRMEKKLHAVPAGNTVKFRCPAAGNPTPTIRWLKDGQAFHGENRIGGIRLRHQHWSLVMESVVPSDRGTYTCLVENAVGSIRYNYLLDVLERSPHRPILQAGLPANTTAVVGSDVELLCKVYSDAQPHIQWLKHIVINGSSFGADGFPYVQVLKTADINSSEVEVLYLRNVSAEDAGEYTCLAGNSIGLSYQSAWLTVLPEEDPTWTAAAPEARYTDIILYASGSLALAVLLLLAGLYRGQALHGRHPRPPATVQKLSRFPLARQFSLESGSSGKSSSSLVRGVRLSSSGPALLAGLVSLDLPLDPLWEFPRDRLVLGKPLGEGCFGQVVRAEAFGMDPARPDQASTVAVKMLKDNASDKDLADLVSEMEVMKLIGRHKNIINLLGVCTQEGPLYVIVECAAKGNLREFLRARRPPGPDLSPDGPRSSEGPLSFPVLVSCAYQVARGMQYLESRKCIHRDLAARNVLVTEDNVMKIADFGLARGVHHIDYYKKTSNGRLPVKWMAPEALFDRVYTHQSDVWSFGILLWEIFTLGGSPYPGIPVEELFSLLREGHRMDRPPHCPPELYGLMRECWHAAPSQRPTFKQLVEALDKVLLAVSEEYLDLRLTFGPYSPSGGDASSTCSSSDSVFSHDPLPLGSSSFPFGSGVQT

SMILES | IC50 [1, 3] [nM] | IC50 (FGFR-4 kinase; Table 1) [nM] | other results
C=CC(=O)Nc1cc(-c2cc3c(cn2)cc(-c2c(Cl)c(OC)cc(OC)c2Cl)c2nccn23)c(OC)cc1N1CCN(C)C2(CC2)C1 [Example 23, N-(5-(4-(2,6-dichloro-3,5-dimethoxyphenyl)imidazo[1,2-a][1,6]naphthyridin-8-yl)-4-methoxy-2-(4-methyl-4,7-diazaspiro[2.5]octan-7-yl)phenyl)acrylamide] | 142 | 3.85 | 
C=CC(=O)Nc1cc(-c2cc3c(cn2)cc(-c2c(Cl)c(OC)cc(OC)c2Cl)c2nccn23)c(OC)cc1N1CCN(C(C)=O)C2(CC2)C1 [Example 11, N-(2-(4-acetyl-4,7-diazaspiro[2.5]octan-7-yl)-5-(4-(2,6-dichloro-3,5-dimethoxyphenyl)imidazo[1,2-a][1,6]naphthyridin-8-yl)-4-methoxyphenyl)acrylamide] | 68.3 | 3.82 | 
CC#CC(=O)Nc1cc(-c2cc3c(cn2)cc(-c2c(Cl)c(OC)cc(OC)c2Cl)c2nccn23)c(OC)cc1N1CCN(C)C2(CC2)C1 [Example 32, N-(5-(4-(2,6-dichloro-3,5-dimethoxyphenyl)imidazo[1,2-a][1,6]naphthyridin-8-yl)-4-methoxy-2-(4-methyl-4,7-diazaspiro[2.5]octan-7-yl)phenyl)but-2-ynamide] | 76.8 | 6.1 | 
C=CC(=O)Nc1cc(-c2cc3c(cn2)cc(-c2c(Cl)c(OC)cc(OC)c2Cl)c2nccn23)c(OC)cc1N1C2CCC1COC2 [Example 6, N-(2-(3-oxa-8-azabicyclo[3 .2.1]octan-8-yl)-5-(4-(2,6-dichloro-3,5-dimethoxyphenyl)imidazo[1,2-a][1,6]naphthyridin-8-yl)-4-methoxyphenyl)acrylamide] | 58.3 |  | AUC(0-inf) [2]: 2560 ng·h/mL; Cmax [2]: 236 ng/mL; Tmax [2]: 6 h; half-life ([2]; read-out: T1/2 (converted)): 11.5 h
C=CC(=O)Nc1cc(-c2cc3c(cn2)cc(-c2c(Cl)c(OC)cc(OC)c2Cl)c2nccn23)c(OC)cc1N1CCOCC1 [Example 54, N-(5-(4-(2,6-dichloro-3,5-dimethoxyphenyl)imidazo[1,2-a][1,6]naphthyridin-8-yl)-4-methoxy-2-morpholinophenyl)acrylamide] |  |  | IC50 ([1]; Table 2, 3 days incubation): 21.5 nM; IC50 (FGFR-4 kinase; Table 2): 0.7 nM
C=CC(=O)Nc1cc(-c2cc3c(cn2)cc(-c2c(Cl)c(OC)cc(OC)c2Cl)c2nccn23)c(OC)cc1N1CCN(C#N)CC1 [Example 60, N-(2-(4-cyanopiperazin-1-yl)-5-(4-(2,6-dichloro-3,5-dimethoxyphenyl)imidazo[1,2-a][1,6]naphthyridin-8-yl)-4-methoxyphenyl)acrylamide] |  |  | IC50 ([1]; Hep3B, Table 2, 3 days incubation): 95.2 nM; IC50 (FGFR-4 kinase; Table 2): 0.9 nM
CC#CC(=O)Nc1cc(-c2cc3c(cn2)cc(-c2c(Cl)c(OC)cc(OC)c2Cl)c2nccn23)c(OC)cc1N1CCOCC1 [Example 29, N-(5-(4-(2,6-dichloro-3,5-dimethoxyphenyl)imidazo[1,2-a][1,6]naphthyridin-8-yl)-4-methoxy-2-morpholinophenyl)but-2-ynamide] | 34.4 | 2.17 | 
CC#CC(=O)Nc1cc(-c2cc3c(cn2)cc(-c2c(Cl)c(OC)cc(OC)c2Cl)c2nccn23)c(OC)cc1N1CCS(=O)(=O)CC1 [Example 30, N-(5-(4-(2,6-dichloro-3,5-dimethoxyphenyl)imidazo[1,2-a][1,6]naphthyridin-8-yl)-2-(1,1-dioxidothiomorpholino)-4-methoxyphenyl)but-2-ynamide] | 46.3 | 0.947 | 
CC#CC(=O)Nc1cc(-c2cc3c(cn2)cc(-c2c(Cl)c(OC)cc(OC)c2Cl)c2nccn23)c(OC)cc1N1CCC(N2CCOCC2)CC1 [Example 31, N-(5-(4-(2,6-dichloro-3,5-dimethoxyphenyl)imidazo[1,2-a][1,6]naphthyridin-8-yl)-4-methoxy-2-(4-morpholinopiperidin-1-yl)phenyl)but-2-ynamide] | 81.3 | 3.63 | 
C=CC(=O)Nc1cc(-c2cc3c(cn2)cc(-c2c(Cl)c(OC)cc(OC)c2Cl)c2nccn23)c(OC)cc1N1CC2CCC(C1)O2 [Example 44, N-(2-(8-oxa-3-azabicyclo[3 .2.1]octan-3-yl)-5-(4-(2,6-dichloro-3,5-dimethoxyphenyl)imidazo[1,2-a][1,6]naphthyridin-8-yl)-4-methoxyphenyl)acrylamide] | 113 | 5.03 | 
C=CC(=O)Nc1cc(-c2cc3c(cn2)cc(-c2c(Cl)c(OC)cc(OC)c2Cl)c2nccn23)c(OC)cc1N1CCC2(CC1)CCN(C1CC1)CC2 [Example 19, N-(2-(9-cyclopropyl-3,9-diazaspiro[5.5]undecan-3-yl)-5-(4-(2,6-dichloro-3,5-dimethoxyphenyl)imidazo[1,2-a][1,6]naphthyridin-8-yl)-4-methoxyphenyl)acrylamide] | 71.7 | 5.79 | 
